According to US8779002B2, “Methods for treating a variety of diseases and conditions, and compounds useful therefor” (Salk Institute for Biological Studies, priority 2007, dated 2014):
Where two headings read alike, the source gives them in different places.

Legend:
[1] = Plasma concentration and brain content after a single oral dose by gavage; format: in vivo, mouse; details: for concentration at 0 hr / concentration at 1 hr / concentration at 2 hr: female, mouse, BALB/c mice
Method: The pharmacokinetic properties of a single oral dose of exemplary compounds according to the invention, i.e., Cmpd 11-001 and Cmpd J147, are studied in 10-week old female BALB/c mice. Cmpd 11-001 or J147 are emulsified in 2.5% carboxymethyl cellulose at a concentration of 20 mg/ml and administered by gavage at a dosage of 400 mg/kg body weight or 200 mg/kg body weight, respectively. The mice are then sacrificed at various intervals after administration (0, 1 hr, 2 hr, 4 hr, and 6 hr).
Plasma is obtained from blood (mixed with K3EDTA to prevent coagulation) by centrifugation at 4,300 g for 10 min, extracted twice with ethyl acetate/propanol (9:1, v/v). The extracts are centrifuged at 5,000 g for 10 min to form aqueous/organic layers. The organic layer containing Cmpd 11-001 is centrifuged at 20,000 g for 10 min to sediment particles. The extraction recovery from plasma is approximately 90%. Thirty μl thereof were analyzed by HPLC equipped with a C18 reversed phase column—Cmpd 11-001 is detected at 330 nm. The elution solvent system is 50% acetonitrile, 50% water and 1 g/L trifluoroacetic acid with a flow rate of 1 ml/min.
To study the distribution of compounds according to the invention in brain at various time intervals (0, 1 hr, 2 hr, 4 hr, and 6 hr) after gavage (400 mg/kg or 200 mg/kg as noted above), the mice are anesthetized with cloral hydrate and perfused through the heart with phosphate buffered saline (PBS) to remove blood in the brain. The mice are then decapitated, the brains removed, and quickly frozen and stored at −80° C. before further analysis. To measure the level of invention compound in the brain, weighed brain pieces are homogenized by sonication in 3 volumes of PBS. The homogenates are then extracted and measured by HPLC as described above.

[2] = system: double transgenic (mutated PS1 and APP) Alzheimer's mouse model; experiment: Morris Water Maze in Alzheimer's mouse model; format: in vivo; details: in the food for 4 months at 100 ppm
Method: FIG. 7 illustrates that […] improves spatial learning and memory in the Morris Water Maze. A circular water tank four feet in diameter, containing water at 26-27° C., is made opaque with white pigment, and a platform placed in the NW quadrant. Mice were randomly introduced to the tank facing the wall in one of the other quadrants for a trial of 50 s or until they found the platform. Upon reaching the platform, or at the end of the 50 s, the mice were placed on the platform, the mice were left on the platform for 15 s. There were four trials per mouse each day for seven consecutive days. The data are presented as the average time to reach the platform (escape latency) of the 4 daily trials for each group of mice. There are 3 groups of 5 mice each. One is wild type (circles), another is a double transgenic (mutated PS1 and APP) Alzheimer's mouse model (rectangle), and the third is the AD mouse plus J147 that has been in the food for 4 months at 100 ppm (diamond).

[3] = system: JNK; experiment: JNK phosphorylation caused by glutamate; format: cell-based; details: HT22 cells and primary cortical neurons
From the text: (§1) A panel of 14 protein kinases was screened against Cmpd CNB-001. […] In HT22 cells and primary cortical neurons, Cmpd CNB-001 blocked p38 and JNK phosphorylation caused by glutamate by about 30%, and inhibited cell death. The phosphorylation of the other tested kinases was not altered.

[4] = system: Rabbit stroke; experiment: Rabbit stroke model; set-up: key: + = positive result or enzyme activation; details: in vivo
[5] = system: Amyloid; experiment: Amyloid dissociation; set-up: key: + = positive result or enzyme activation
[6] = biological target: JNK-1 (Homo sapiens, UniProt P45983); experiment: Protein kinase panel: JNK-1; format: biochemical; details: panel of 14 protein kinases
JNK-1, sequence (P45983 whole entry, species assumed): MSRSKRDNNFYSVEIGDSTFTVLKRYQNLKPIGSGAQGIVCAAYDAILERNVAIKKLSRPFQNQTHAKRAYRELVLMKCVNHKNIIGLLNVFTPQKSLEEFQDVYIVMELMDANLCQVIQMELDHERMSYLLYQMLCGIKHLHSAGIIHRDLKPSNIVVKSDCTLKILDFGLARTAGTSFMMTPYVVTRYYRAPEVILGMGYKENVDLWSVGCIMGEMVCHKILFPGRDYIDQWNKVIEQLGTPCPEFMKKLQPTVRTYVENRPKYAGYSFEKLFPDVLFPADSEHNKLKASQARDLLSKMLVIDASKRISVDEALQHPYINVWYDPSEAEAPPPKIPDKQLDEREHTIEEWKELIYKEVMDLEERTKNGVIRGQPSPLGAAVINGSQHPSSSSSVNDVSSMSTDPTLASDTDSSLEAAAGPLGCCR
From the text: as §1

[7] = biological target: JNK-3 (Homo sapiens, UniProt P53779); experiment: Protein kinase panel: JNK-3; format: biochemical; details: panel of 14 protein kinases
JNK-3, sequence (P53779 whole entry, species assumed): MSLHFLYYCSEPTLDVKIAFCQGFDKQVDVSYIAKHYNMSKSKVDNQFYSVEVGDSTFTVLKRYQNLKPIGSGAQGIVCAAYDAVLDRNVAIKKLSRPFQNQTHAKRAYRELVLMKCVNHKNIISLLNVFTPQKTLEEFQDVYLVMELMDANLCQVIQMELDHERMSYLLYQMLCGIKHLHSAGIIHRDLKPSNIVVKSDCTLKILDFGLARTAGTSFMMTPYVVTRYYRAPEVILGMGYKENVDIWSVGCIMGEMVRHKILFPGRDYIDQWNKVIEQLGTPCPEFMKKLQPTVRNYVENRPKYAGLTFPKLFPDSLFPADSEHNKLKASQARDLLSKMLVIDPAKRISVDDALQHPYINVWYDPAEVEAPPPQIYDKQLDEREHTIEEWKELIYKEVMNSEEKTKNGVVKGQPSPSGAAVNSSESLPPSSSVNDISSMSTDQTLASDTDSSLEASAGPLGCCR
From the text: as §1

[8] = biological target: JNK-2 (Homo sapiens, UniProt P45984); experiment: Protein kinase panel: JNK-2; format: biochemical; details: panel of 14 protein kinases
JNK-2, sequence (P45984 whole entry, species assumed): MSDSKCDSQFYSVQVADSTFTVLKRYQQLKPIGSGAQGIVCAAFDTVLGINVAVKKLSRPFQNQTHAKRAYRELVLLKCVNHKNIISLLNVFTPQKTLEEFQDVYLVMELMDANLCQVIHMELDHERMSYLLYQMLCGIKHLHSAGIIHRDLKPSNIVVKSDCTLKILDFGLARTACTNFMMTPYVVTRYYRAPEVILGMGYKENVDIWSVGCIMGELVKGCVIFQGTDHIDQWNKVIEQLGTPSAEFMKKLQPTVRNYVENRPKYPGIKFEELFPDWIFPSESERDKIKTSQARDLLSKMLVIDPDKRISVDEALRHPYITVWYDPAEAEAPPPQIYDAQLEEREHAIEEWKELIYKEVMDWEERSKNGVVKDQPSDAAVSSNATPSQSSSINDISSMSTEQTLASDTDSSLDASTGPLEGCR
From the text: as §1

[9] = brain, 200 mg/kg single oral dose by gavage, read-out: Brain content
[10] = plasma, 200 mg/kg single oral dose by gavage, read-out: Plasma concentration

Row | Compound | Time at which maximum plasma concentration is reached after administration ([1]; 200 mg/kg single oral dose by gavage, mice) | concentration at 0 hr [1, 9] [ng/g] | concentration at 1 hr [1, 9] [ng/g] | concentration at 2 hr [1, 9] [ng/g] | concentration at 0 hr [1, 10] [ng/mL] | concentration at 1 hr [1, 10] [ng/mL] | concentration at 2 hr [1, 10] [ng/mL] | Retention in the brain ([1]; relative to 11-011, after oral gavage in mice) | Deficit in memory of AD mice relative to wild type (escape latency) [2] | Block of JNK phosphorylation caused by glutamate [3] | Animal Models, Rabbit stroke [4] | Amyloid Dissociation [5] | Inhibition of kinase [6] | Inhibition of kinase [7] | Inhibition of kinase [8]
1 | COc1cccc(/C=N/N(C(=O)C(F)(F)F)c2ccc(C)cc2C)c1 [Compound J147] | about 1 hr | 0 | 3900 | 2800 | 0 | 5600 | 300 | improved ability to be retained in the brain | corrected |  |  |  |  |  | 
2 | COc1cc(/C=C/c2cc(/C=C/c3ccc(O)c(OC)c3)n(-c3ccccc3)n2)ccc1O [CNB-001] |  |  |  |  |  |  |  |  |  | about 30% | + | + | None of the other enzymes that were assayed, including JNK-1 or JNK-2, were affected | partially inhibited | None of the other enzymes that were assayed, including JNK-1 or JNK-2, were affected
